The values below come from patent publication US8637485B2, “5′,-substituted adenosynes preparation thereof and use as inhibitors of S-adenosylmethionine decarboxylase” (Southern Research Institute, priority 2007, dated 2014).

Where a name gives a salt, the structure may show the parent alone.

As a reminder, the IC50 is the midpoint of a concentration-inhibition curve. Lower therefore signals greater potency.

In the first assay the target is T1, hAdoMetDC (Homo sapiens, UniProt P17707).
T1 construct: the enzyme undergoes autoprocessing to give the α and the β subunits; made in house; host or cells: E. coli JM109 (pQE30-based plasmid)
T1 sequence (P17707 1-67 limits assumed): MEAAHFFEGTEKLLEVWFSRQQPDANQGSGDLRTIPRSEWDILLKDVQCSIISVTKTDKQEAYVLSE
T1 sequence (P17707 68-328 limits assumed): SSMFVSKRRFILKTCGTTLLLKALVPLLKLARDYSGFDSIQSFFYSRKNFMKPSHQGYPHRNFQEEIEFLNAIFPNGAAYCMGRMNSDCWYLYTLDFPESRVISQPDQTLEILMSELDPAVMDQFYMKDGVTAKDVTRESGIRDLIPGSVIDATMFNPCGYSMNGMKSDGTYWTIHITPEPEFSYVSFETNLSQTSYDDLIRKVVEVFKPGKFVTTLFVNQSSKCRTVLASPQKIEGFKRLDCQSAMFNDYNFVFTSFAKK
Kind of assay: Assay of AdoMetDC activity (release of 14CO2 from S-adenosyl-L-[carboxy-14C]methionine) and determination of inhibitor IC50 values. The settings on record: at 100 μM. Type of assay: biochemical. How it is done:
Assay of AdoMetDC Activity and Determination of Inhibitor IC50 Values
(§1) AdoMetDC was assayed by measuring the release of ^14CO2 from S-adenosyl-L-[carboxy-^14C]methionine (Amersham Pharmacia Biotech, ˜60 mCi/mmol) (36). […] For determination of the abilities of compounds to inhibit AdoMetDC, the enzyme activity was determined in the presence of no inhibitor and at least 5 concentrations of each potential inhibitor. The IC50 values were determined from curve fitting to plots of the inhibitor concentration versus the % inhibition of AdoMetDC.
as §1
Take `CN(CCON)C[C@H]1O[C@@H](n2c(-c3ccccc3)nc3c(N)ncnc32)[C@H](O)[C@@H]1O.CN(CCON)C[C@H]1O[C@@H](n2c(-c3ccccc3)nc3c(N)ncnc32)[C@H](O)[C@@H]1O.O=S(=O)(O)O` [Compound 7c, 5′-[(2-Aminooxyethyl)methylamino]-5′-deoxy-8-phenyladenosine sulfate (2:1 salt)]: the “inhibition” value is recorded as less than 5% inhibition at 100 μM.

Turning to `CN(CCCCON)C[C@H]1O[C@@H](n2c(-c3ccccc3)nc3c(N)ncnc32)[C@H](O)[C@@H]1O.O=S(=O)(O)O` [Compound 9b, 5′-[(4-Aminooxybutyl)methylamino]-5′-deoxy-8-phenyladenosine sulfate (1.75:1 salt)], the “inhibition” value is reported as less than 5% inhibition at 100 μM.

`Cc1nc2c(N)ncnc2n1[C@@H]1O[C@H](CN(C)CC(N)=O)[C@@H](O)[C@H]1O.O=S(=O)(O)O` [Compound 13f, 5′-[(Carboxamidomethyl)methylamino]-5′-deoxy-8-methyladenosine sulfate (1.45:1 salt)]: the “inhibition” value was less than 5% inhibition at 100 μM.

On to `CN(CCCN)C[C@H]1O[C@@H](n2c(-c3ccccc3)nc3c(N)ncnc32)[C@H](O)[C@@H]1O.O=S(=O)(O)O` [Compound 14b, 5′-[(3-Aminopropyl)methylamino]-5′-deoxy-8-phenyladenosine sulfate (2.2:1 salt)], for which the “inhibition” value is less than 5% inhibition at 100 μM.

The molecule `CN(CCN)C[C@H]1O[C@@H](n2cnc3c(N)ncnc32)[C@H](O)[C@@H]1O` [Compound 14e, 5′-[(2-Aminoethyl)methylamino]-5′-deoxyadenosine] came in with an inhibition at 100 µM of less than 5%.

Regarding `CNCCCNC[C@H]1O[C@@H](n2c(NC)nc3c(N)ncnc32)[C@H](O)[C@@H]1O.O=S(=O)(O)O` [Compound 15a, 5′-deoxy-8-(methylamino)-5′(3-methylaminopropylamino)adenosine sulfate (2.4:1 salt)], the “inhibition” value is listed as less than 5% inhibition at 100 μM.

Consider `CNCCCNC[C@H]1O[C@@H](n2c(-c3ccccc3)nc3c(N)ncnc32)[C@H](O)[C@@H]1O.O=S(=O)(O)O` [Compound 15b, 5′-deoxy-5′-(3-methylaminopropylamino)-8-phenyladenosine sulfate (1.7:1 salt)], for which the “inhibition” value was less than 5% inhibition at 100 μM.

Consider `CNCCNC[C@H]1O[C@@H](n2cnc3c(N)ncnc32)[C@H](O)[C@@H]1O` [Compound 15c, 5′-deoxy-5′-(2-methylaminoethylamino)adenosine], for which the inhibition at 100 µM was less than 5%.

As for `CNCCNC[C@H]1O[C@@H](n2c(C)nc3c(N)ncnc32)[C@H](O)[C@@H]1O` [Compound 15d, 5′-deoxy-8-methyl-5′-(2-methylaminoethylamino)adenosine], the inhibition at 100 µM was less than 5%.

Regarding `CN(CCNC(=N)N)C[C@H]1O[C@@H](n2cnc3c(N)ncnc32)[C@H](O)[C@@H]1O` [Compound 18a, 5′-Deoxy 5′-[(2-guanidinoethyl)methylamino]adenosine], the inhibition at 100 µM was less than 5%.

Still in this assay, the particulars now being: at least 5 concentrations; curve fit of inhibitor concentration versus % inhibition of hAdoMetDC.
For the molecule `CNc1nc2c(N)ncnc2n1[C@@H]1O[C@H](CN(C)CCON)[C@@H](O)[C@H]1O` [Compound 7b, 5′-[(2-Aminooxyethyl)methylamino]-5′-deoxy-8-(methylamino)adenosine sulfate (2.1:1 salt)], the IC50 was 0.086 µM.

`CNc1nc2c(N)ncnc2n1[C@@H]1O[C@H](CN(C)CCCCON)[C@@H](O)[C@H]1O` [Compound 9a, 5′-[(4-Aminooxybutyl)methylamino]-5′-deoxy-8-(methylamino)adenosine sulfate (0.4:1 salt)] gave a half-maximal inhibitory concentration (IC50) of 0.049 µM.

In turn, `CN(CCCCON)C[C@H]1O[C@@H](n2c(=O)[nH]c3c(N)ncnc32)[C@H](O)[C@@H]1O` [Compound 9c, 5′-[(4-Aminooxybutyl)methylamino]-5′-deoxy-8-oxoadenosine sulfate (1.9:1 salt)] gave an IC50 of 0.011 µM.

In turn, `Cc1nc2c(N)ncnc2n1[C@@H]1O[C@H](CN(C)CCCCON)[C@@H](O)[C@H]1O` [Compound 9d, 5′-[(4-Aminooxybutyl)methylamino]-5′-deoxy-8-methyladenosine sulfate (1.9:1 salt)] had an IC50 of 0.005 µM.

`CN(CCCCON)C[C@H]1O[C@@H](n2cnc3c(N)ncnc32)[C@H](O)[C@@H]1O` [Compound 9f, 5′-[(4-Aminooxybutyl)methylamino]-5′-deoxyadenosine sulfate (2:1 salt)] returned an IC50 of 0.018 µM.

On to `CCc1nc2c(N)ncnc2n1[C@@H]1O[C@H](CN(C)CCC(N)=O)[C@@H](O)[C@H]1O` [Compound 13e, 5′-[(2-Carboxamidoethyl)methyamino]-5′-deoxy-8-ethyladenosine sulfate (1.1:1 salt)], for which the IC50 is 4 µM.

Take `CN(CCC(N)=O)C[C@H]1O[C@@H](n2cnc3c(N)ncnc32)[C@H](O)[C@@H]1O` [Compound 13j, 5′-[(2-Carboxamidoethyl)methylamino]-5′-deoxyadenosine sulfate (1.9:1 salt)]: the IC50 was 7 µM.

`Cc1nc2c(N)ncnc2n1[C@@H]1O[C@H](CN(C)CCC(=O)NN)[C@@H](O)[C@H]1O` [Compound 13k, 5′-Deoxy-5′-[(2-hydrazinocarbonylethyl)methylamino]-8-methyladenosine sulfate (2:1 salt)] registered an IC50 of 0.17 µM.

Take `CN(CCC(=O)NN)C[C@H]1O[C@@H](n2cnc3c(N)ncnc32)[C@H](O)[C@@H]1O` [Compound 13l, 5′-Deoxy-5′-[(2-hydrazinocarbonylethyl)methylamino]-adenosine sulfate (2:1 salt)]: 1.5 µM corresponded to half-maximal inhibition (IC50).

`Cc1nc2c(N)ncnc2n1[C@@H]1O[C@H](CN(C)CC(=O)NN)[C@@H](O)[C@H]1O` [Compound 13m, 5′-Deoxy-5′-[(hydrazinocarbonylmethyl)methylamino]-8-methyladenosine] displayed an IC50 of 31 µM.

`CNc1nc2c(N)ncnc2n1[C@@H]1O[C@H](CN(C)CCCN)[C@@H](O)[C@H]1O` [Compound 14a, 5′-[(3-Aminopropyl)methylamino]-5′-deoxy-8-(methylamino)adenosine sulfate (2.4:1 salt)] showed an IC50 of 440 µM.

As to `CN(CCCN)C[C@H]1O[C@@H](n2cnc3c(N)ncnc32)[C@H](O)[C@@H]1O` [Compound 14d, 5′-[(3-Aminopropyl)methylamino]-5′-deoxyadenosine sulfate (2:1 salt)], the IC50 came to 500 µM.

For `Cc1nc2c(N)ncnc2n1[C@@H]1O[C@H](CN(C)CCN)[C@@H](O)[C@H]1O` [Compound 14f, 5′-[(2-Aminoethyl)methylamino]-5′-deoxy-8-methyladenosine], it took 88 µM to reach half-maximal inhibition (IC50).

Regarding `CCc1nc2c(N)ncnc2n1[C@@H]1O[C@H](CN(C)CCCN)[C@@H](O)[C@H]1O` [Compound 17d, 5′-[(3-Aminopropyl)methylamino]-5′-deoxy-8-ethyladenosine sulfate (2.5:1 salt)], the IC50 was found to be 420 µM.

For `CN(CCC(=N)NO)C[C@H]1O[C@@H](n2cnc3c(N)ncnc32)[C@H](O)[C@@H]1O` [Compound 18c, 5′-Deoxy-5′-[(2-hydroxyamidinoethyl)methylamino]adenosine], half-maximal inhibition (IC50) was put at 157 µM.

Molecule `CN(C)C[C@H]1O[C@@H](n2cnc3c(N)ncnc32)[C@H](O)[C@@H]1O` [Compound 19b, 5′-Deoxy-5′-(N,N-dimethylamino)adenosine] returned an IC50 of 9 µM.

The same assay, now with this note: versus 8-unsubstituted parent compound.
Consider `Cc1nc2c(N)ncnc2n1[C@@H]1O[C@H](CN(C)CCCCON)[C@@H](O)[C@H]1O` [Compound 9d, 5′-[(4-Aminooxybutyl)methylamino]-5′-deoxy-8-methyladenosine sulfate (1.9:1 salt)], for which the “reduction in the IC50 value when an 8-methyl substituent was added to the adenine ring” value came to 3.4 fold.

The assay is the same for the next values; noted with them: versus un-substituted parent compound.
As to `Cc1nc2c(N)ncnc2n1[C@@H]1O[C@H](CN(C)CCON)[C@@H](O)[C@H]1O` [Compound 7a, 5′-[(2-Aminooxyethyl)methylamino]-5′-deoxy-8-methyladenosine sulfate (2.2:1 salt)], the “increase in potency when an adenine 8-methyl substituent was added” value is listed as 8 fold.

For another assay, the target named is T2, AdoMetDC (Homo sapiens, UniProt P17707).
T2 sequence (P17707 1-334): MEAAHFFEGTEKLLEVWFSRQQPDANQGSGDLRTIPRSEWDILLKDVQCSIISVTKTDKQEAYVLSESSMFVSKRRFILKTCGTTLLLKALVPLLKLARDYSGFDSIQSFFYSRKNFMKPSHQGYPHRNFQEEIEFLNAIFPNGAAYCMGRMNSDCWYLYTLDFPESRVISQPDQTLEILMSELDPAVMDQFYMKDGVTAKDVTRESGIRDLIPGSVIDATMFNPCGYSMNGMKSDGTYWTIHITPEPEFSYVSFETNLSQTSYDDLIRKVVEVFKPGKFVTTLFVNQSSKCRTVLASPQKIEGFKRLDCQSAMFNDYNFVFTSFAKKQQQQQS
Test: not given
The settings on record: previously reported; cited from earlier work.
Regarding `C[S+](C)C[C@H]1O[C@@H](n2cnc3c(N)ncnc32)[C@H](O)[C@@H]1O` [Compound 21d, 5′-Deoxy-5′-dimethylsulfonioadenosine chloride], the Ki entry is reported as “in the μM range”.
